# Bridge positions count the residues as written; N and C are the ends. Peptide text beside a SMILES is read from it.
# Experiments:
# [1] = 37 °C, comparison in words
# [2] = BeStSel analysis of Far-UV CD spectra (secondary structure content); assay type: physicochemical; details: from Far-UV CD spectra
# From the text: This finding prompted us to synthesize the lactam stapled peptides 22 and 23. Similar to our observations of compound 10, we also noted a dominant conformation of 22 attributable to a regular helix1 (53.7%) and an antiparallel, right-twisted β-sheet (46.3%). Therefore, the high percentage of calculated helicity in compounds 10 and 22 can be explained on the basis of the contribution of a strong, negative absorbance band within the 217–218 nm spectral range of the Far-UV CD spectra. Such features are typical of a right-twisted β-sheet.
# We were also successful at applying several cyclization strategies across the panel of hACE2 (His34-Gln42)-derived peptides. […] The associated root mean square deviation (RMSD) was 0.5. […] The distortion of the helical conformation can be partially explained by the highly polar nature of our peptide sequence (7 out of 9 amino acids) and inherent limitations in terms of the maximum helicity possible for short peptides due to C- and N-terminal distortions. […] That finding highlights the substantial influence of the initial linear sequence on staple-induced helicity.
# circular dichroism = details: 10 mM Na phosphate; pH 7.4; 25 °C; 100 uM
# in vitro = details: rat, plasma
# [3] = assay type: physicochemical; details: 100 µM in 50/50 TFE/10 mM sodium phosphate buffer, pH 7.4, 25 °C
# [4] = molecular target: SARS-CoV-2 Spike RBD/hACE2 interactions (Severe acute respiratory syndrome coronavirus 2, UniProt P0DTC2); assay type: biochemical, SARS-CoV-2 / human
# [5] = Far-UV circular dichroism, calculated percent helicity in phosphate buffer; assay type: physicochemical; details: 100 µM in 10 mM sodium phosphate buffer (PBS), pH 7.4, 25 °C; calculated at 222 nm
# Protocol: Figure 3 Data generated from Far-UV CD spectra for hACE2-derived peptides measured at a concentration of 100 µM in 10 mM sodium phosphate buffer at pH 7.4 and 25 °C. (A) Far-UV CD spectra of hACE2 (Asp30-Asp38)-derived linear and i, i + 4 staple peptides in molar ellipticity per residue. (B) Table listing the derivatives of 1 with a focus on the macrocyclization technique and measure-based calculated helicity (%) via CD. (C) CD spectra of hACE2 (His34-Gln42)-derived linear and i, i + 4 staple peptides in molar ellipticity per residue. (D) Table listing the derivatives of 2 with a focus on the macrocyclization technique and measure-based calculated helicity (%) via CD. HDY 1,5-Hexadiyne; BMB 1,4-Bis(bromomethyl)benzene; HFB hexafluorobenzene. ^a Predicted helicity (%) using AGADIR online software available at http://agadir.crg.es (accessed on 17 April 2023); it is only applicable to peptides consisting of natural amino acids. […]
# The raw CD data (mdeg) were converted to mean residue ellipticity ( [θ] , deg·cm^2·dmol^−1·res^−1) by normalizing for peptide concentration, the number of amide bonds and path length, using Equation (2):(2) [θ]=θ/10×C×Np×l where θ is the measured ellipticity (mdeg), C is the peptide molar concentration (M), Np is the number of amino acid residues in the peptide and l is the cell path length (cm).
# The maximum mean ellipticity [θ]max was calculated using Equation (3), as reported previously:(3) [θ]max=−44000+250×T×1−k/Np where T is temperature (°C) and k is the number of non-hydrogen-bonded peptide carbonyls. […]
# [6] = reference control; cited from earlier work
compound,measurement,setting,value
"CC(=O)N[C@@H](Cc1c[nH]cn1)C(=O)N[C@@H](CCC(=O)O)C(=O)N[C@H]1CCCCNC(=O)C[C@@H](C(=O)N[C@@H](Cc2ccc(O)cc2)C(=O)N[C@@H](CCC(N)=O)C(N)=O)NC(=O)[C@H](CC(C)C)NC(=O)[C@H](CC(=O)O)NC(=O)[C@H](CCC(=O)O)NC1=O [peptide 4, Ac-NH-His-Glu-[Lys-Glu-Asp-Leu-Asp]-Tyr-Gln-CO-NH2] (Ac-HEKEDLDYQ-NH2; lactam 3-7)",Degradation / stability in rat plasma over 24 h,[1],significantly more stable
same,Distorted helix2 with BeStSel,[2],18.3%
same,Helical content (α-helical character) with BeStSel,[2],37.0%
same,Regular helix1 with BeStSel,[2],18.7%
same,helicity,circular dichroism,55.5%
same,half-life,in vitro,5 h
same,Helicity in 50%TFE (%),[3],49.4%
same,"Luminescence signal (RLUs), disruption of SmBiT-ACE2 + LgBiT-RBD",[4],reduced the luminescence signal
Ac-NH-Asp-Lys-[Lys-Asn-His-Glu-Asp]-Glu-Asp-[Lys-Phe-Tyr-Gln-Asp]-CO-NH2 [peptide 24],Helicity (%) via CD,[5],25.2%
Ac-NH-His-Glu-S5-Glu-Asp-Leu-S5-Tyr-Gln-CO-NH2 [linear 11],Helicity (%) via CD,[5],11.0%
Ac-NH-His-Glu-[Lys-Glu-Asp-Leu-dPra]-Tyr-Gln-CO-NH2 [compound 13],Helicity (%) via CD,[5],18.1%
"Apelin-13 (QRPRLSHKGPMPF; Apelin-13; UniProt Q9ULZ1 65-77, looked up)","In vitro half-life (t1/2), in words",[6],short in vitro half-life

# — publication PMC10778704, “Comparative Analysis of Cyclization Techniques in Stapled Peptides: Structural Insights into Protein–Protein Interactions in a SARS-CoV-2 Spike RBD/hACE2 Model System” (International Journal of Molecular Sciences, 2023)
